Measured values published in ChEMBL document CHEMBL2331416, “Investigation of antibacterial mode of action for traditional and amphiphilic aminoglycosides” (Bioorg Med Chem Lett, 2013).
Converted amounts (≈) assume the structure as drawn. The source made the active and inactive calls. The calls are words filed in the database; no cut-off is given here.

Tests used:
[1] = Binding affinity to 2-AP labeled 16s rRNA (unknown origin) having pairing of C1405-G1496 by fluorescence assay
[2] = Binding affinity to 2-AP labeled 16s rRNA (unknown origin) having pairing of G1405-C1496 by fluorescence assay
Staphylococcus aureus [3] = assay: Antibacterial activity against Staphylococcus aureus ATCC 25923 assessed as growth inhibition; format: functional
Escherichia coli [4] = assay: Antibacterial activity against Escherichia coli ATCC 25922 assessed as growth inhibition; format: functional
Staphylococcus aureus [5] = assay: Antibacterial activity against Staphylococcus aureus ATCC 25923 assessed as membrane disruption at 4 X MIC after 2 hrs by SYTOX staining-based fluorescence microscopic analysis; format: functional, organism-based
Escherichia coli [6] = assay: Antibacterial activity against Escherichia coli ATCC 25922 assessed as membrane disruption at 4 X MIC after 2 hrs by SYTOX staining-based fluorescence microscopic analysis; format: functional, organism-based

Kd [1] [nM] | Kd ([2]; read-out: Kd) [nM] | MIC (Staphylococcus aureus [3]) [µM] | MIC (Escherichia coli [4]) [µM] | Kd [2] | SMILES | Activity (Staphylococcus aureus [5]) | Activity (Escherichia coli [6])
2830 | 5680 | 29.6 (≈ 14.3 µg/mL) | 44 (≈ 21.3 µg/mL) | – | NC[C@H]1O[C@H](O[C@H]2[C@H](O[C@@H]3O[C@H](CO)[C@@H](N)[C@H](O)[C@H]3O)[C@@H](O)[C@H](N)C[C@@H]2N)[C@H](N)[C@@H](O)[C@@H]1O | – | –
261 | 3720 | 29.6 (≈ 14.3 µg/mL) | 41.8 (≈ 20.2 µg/mL) | – | NC[C@H]1O[C@@H](O[C@@H]2[C@@H](O)[C@H](N)C[C@H](N)[C@H]2O[C@H]2O[C@H](CN)[C@@H](O)[C@H](O)[C@H]2N)[C@H](O)[C@@H](O)[C@@H]1N | – | –
1270 | 1150 | 1.1 (≈ 0.676 µg/mL) | 4.4 (≈ 2.7 µg/mL) | – | NC[C@@H]1O[C@H](O[C@H]2[C@@H](O)[C@H](O[C@@H]3[C@@H](O)[C@H](N)C[C@H](N)[C@H]3O[C@H]3O[C@H](CN)[C@@H](O)[C@H](O)[C@H]3N)O[C@@H]2CO)[C@H](N)[C@@H](O)[C@@H]1O [FRAMYCETIN] | inactive | –
608 | 9670 | 44.4 (≈ 21.5 µg/mL) | 92.4 (≈ 44.8 µg/mL) | – | NC[C@H]1O[C@H](O[C@H]2[C@H](O[C@@H]3O[C@H](CO)[C@@H](O)[C@H](O)[C@H]3O)[C@@H](O)[C@H](N)C[C@@H]2N)[C@H](N)[C@@H](O)[C@@H]1O | – | –
1150 | – | 59.2 (≈ 28.6 µg/mL) | 57.2 (≈ 27.7 µg/mL) | Not Active | NC[C@H]1O[C@H](O[C@H]2[C@H](O[C@@H]3O[C@H](CO)[C@@H](O)[C@H](N)[C@H]3O)[C@@H](O)[C@H](N)C[C@@H]2N)[C@H](N)[C@@H](O)[C@@H]1O | – | –
1640 | – | 2.15 (≈ 1.54 µg/mL) | 8.59 (≈ 6.15 µg/mL) | Not Active | NCC[C@H](O)C(=O)N[C@@H]1C[C@H](N)[C@@H](O[C@H]2O[C@H](CN)[C@@H](O)[C@H](O)[C@H]2N)[C@H](O[C@@H]2O[C@H](CO)[C@@H](O[C@@H]3O[C@H](CN)[C@H](O)[C@@H](O)[C@@H]3N)[C@H]2O)[C@H]1O [NEOKACIN] | – | –
845 | 26000 | 14.8 (≈ 7.16 µg/mL) | 35.1 (≈ 17 µg/mL) | – | NC[C@H]1O[C@@H](O[C@@H]2[C@@H](O)[C@H](N)C[C@H](N)[C@H]2O[C@H]2O[C@H](CN)[C@@H](O)[C@H](O)[C@H]2N)[C@H](O)[C@@H](O)[C@@H]1O | – | –
1360 | 650 | 2.8 (≈ 1.5 µg/mL) | 5.59 (≈ 3 µg/mL) | – | C[C@H]1O[C@@H](O[C@@H]2[C@@H](O)[C@H](NC(=O)[C@@H](O)CCN)C[C@H](N)[C@H]2O[C@H]2O[C@H](CN)CC[C@H]2N)[C@H](O)[C@@H](O)[C@@H]1N [PYRANKACIN] | – | –
556 | – | 11 (≈ 5.14 µg/mL) | 19.8 (≈ 9.26 µg/mL) | Not Active | C[C@H]1O[C@@H](O[C@@H]2[C@@H](O)[C@H](N)C[C@H](N)[C@H]2O[C@H]2O[C@H](CN)[C@@H](O)[C@H](O)[C@H]2N)[C@H](O)[C@@H](O)[C@@H]1N | – | –
737 | 1270 | 2.35 (≈ 2 µg/mL) | 4.69 (≈ 4 µg/mL) | – | CCCCCCCCCCCCCCCC(=O)NC[C@H]1O[C@@H](O[C@@H]2[C@@H](O)[C@H](N)C[C@H](N)[C@H]2O[C@H]2O[C@H](CN)[C@@H](O)[C@H](O)[C@H]2N)[C@H](O)[C@@H]1O[C@@H]1O[C@H](CN)[C@H](O)[C@@H](O)[C@@H]1N | Active | Active
1200 | 1330 | 6.5 (≈ 2.84 µg/mL) | 26 (≈ 11.3 µg/mL) | – | C[C@H]1O[C@@H](O[C@@H]2[C@@H](O)[C@H](N)C[C@H](N)[C@H]2O[C@H]2O[C@H](CN)CC[C@H]2N)[C@H](O)[C@@H](O)[C@@H]1O | – | –
